# Measurements published in patent US11078175B2, “Substituted dihydrobenzofuran compounds and their use as synergists” (ENDURA S.P.A., priority 2015, dated 2021).
# What was measured:
# Bemisia tabaci CYP6CM1 = conditions: recombinant CYP6CM1; 3 μL of 10 mM compound stock in acetone added to 50 μL enzyme; 10 min incubation at room temperature; substrate 7-ethoxycoumarin; acetone-only control
# Protocol: Ability of the compounds of the invention to inhibit oxidative enzymes (P450), a major mechanism conferring resistance to xenobiotics, was measured using recombinant enzymes corresponding to CYPCM1 from Bemisia tabaci.
# Diluted recombinant enzyme (50 μL) was mixed with 3 μL of a.m compounds stock solutions, with acetone only used as a control. After 10 min incubation at room temperature, 80 μL of 0.125 mM 7-ethoxycoumarin was added, followed by 10 μL 9.6 mM NADPH (nicotinamide adenine dinucleotide phosphate) in 0.1 M sodium phosphate, pH 7.8, and 0-deethylation activity monitored as above. A PBO solution (10 mM) was prepared in the same way as a comparison.
# [1] = target: T1, FE4 Myzus persicae esterases (Myzus persicae, UniProt P35502); test: Inhibition of esterase enzymes, 4-nitrophenyl acetate substrate with purified FE4; assay type: biochemical; conditions: 2.5 μL of 10 mM compound in acetone added to 50 μL, 10 min incubation, substrate 4-nitrophenyl acetate 0.8 mM final, acetone-only control
# T1 construct: would be utilised for the purified esterases from aphids; from tissue; host or cells: aphids (Myzus persicae)
# T1 sequence (P35502 24-564): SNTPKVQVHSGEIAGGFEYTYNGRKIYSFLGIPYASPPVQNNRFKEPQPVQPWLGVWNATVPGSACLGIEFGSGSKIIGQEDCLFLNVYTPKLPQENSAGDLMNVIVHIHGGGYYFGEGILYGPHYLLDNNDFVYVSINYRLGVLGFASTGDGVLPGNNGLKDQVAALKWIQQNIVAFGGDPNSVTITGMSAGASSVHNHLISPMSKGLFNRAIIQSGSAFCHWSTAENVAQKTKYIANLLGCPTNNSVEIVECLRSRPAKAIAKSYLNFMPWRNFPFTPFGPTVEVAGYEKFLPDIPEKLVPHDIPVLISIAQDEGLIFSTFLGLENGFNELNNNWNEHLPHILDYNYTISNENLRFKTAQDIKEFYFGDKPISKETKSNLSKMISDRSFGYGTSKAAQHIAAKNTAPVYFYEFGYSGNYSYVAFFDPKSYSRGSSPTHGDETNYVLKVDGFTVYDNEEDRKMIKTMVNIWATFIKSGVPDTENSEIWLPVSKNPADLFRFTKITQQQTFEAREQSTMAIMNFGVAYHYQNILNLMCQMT
# Protocol: It was envisaged, therefore, that the ‘esterase intereference assay’ (Khot et al., 2008) would be utilised for the purified esterases from aphids. Various esterase substrates were assessed to find one suitable of monitoring inhibition in an insect homogenate. The Myzus persicae resistance associated esterase, FE4, was used.
# From the literature (Philippou et al., 2013) it is known that 1-naphthyl acetate is not suitable for this assay. Instead, 4-nitrophenyl acetate was used. A 10 mM pNA stock was prepared in acetone and added to 0.02 M phosphate buffer pH 7.0 (final concentration 2 mM). The comparison was made with 6 PBO analogues of variable efficacy.
# For the assay 10 μL of purified FE4 was diluted to a total volume of 50 μL by the addition of 0.02 M phosphate buffer, pH 7.0 in individual wells of a microplate (maxisorb, NUNC). To each well, 2.5 μL of 10 mM of the compound of Example 1 and of Example 2 in acetone was added and incubated for 10 mins, with acetone only used as a control. Following incubation, 100 μL of 0.02 M phosphate buffer, pH 7.0 and 100 μL of 2 mM 4-nitrophenyl acetate was added (final volume in well 250 μL, final substrate concentration 0.8 mM). Enzyme activity was read at 405 nm in a Spectramax Tmax for 5 min, with readings taken every 5 secs. The rate (mOD min^−1) was calculated by the integrated software, Softmax Pro v.5.4.
Structure (SMILES),% activity remaining (Bemisia tabaci CYP6CM1),remaining activity at 10000 µM (stock) [1]
"CCCCCCc1cc2c(c(COCCOCCOCCCC)c1)OCC2 [Compound of Example 2, 5-n-hexyl-7-[[2-(2-Butoxyethoxy)ethoxy]methyl]-2,3-dihydrobenzo furan]",86.22%,40.6%
"CCCCOCCOCCOCc1cc(CCC)cc2c1OCC2 [Compound of Example 1, 5-propyl-7-[[2-(2-Butoxyethoxy)ethoxy]methyl]-2,3-dihydrobenzo furan]",38.47%,33.2%
